Patent US11236354B2, “Glyphosate-n-acetyltransferase (GLYAT) sequences and methods of use” (PIONEER HI-BRED INTERNATIONAL, INC., priority 2013, dated 2022)
Values joined by “and” are separate entries in the source; they are usually repeats but may differ in a detail not shown here. Equal values may be shown once.

How the values were obtained:
Test in all cases: Substrate saturation kinetic analysis of purified GLYAT
[1] = molecular target: T1, native GLYAT (glyphosate-N-acetyltransferase), SEQ ID NO:173 (Bacillus licheniformis, UniProt Q65LG7); type: biochemical; conditions: Table 5; native GLYAT SEQ ID NO:173; ratio of kcat/Km asp to kcat/Km glyph
T1 sequence (Q65LG7 1-146): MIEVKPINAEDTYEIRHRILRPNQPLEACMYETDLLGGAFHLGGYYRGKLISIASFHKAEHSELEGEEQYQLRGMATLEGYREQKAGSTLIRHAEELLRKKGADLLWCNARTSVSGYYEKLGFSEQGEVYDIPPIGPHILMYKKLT
Procedure: (§1) E. coli cultures in LB or 2×YT were grown overnight at 37° C. to saturation. The cells were used as a 2% inoculum into fresh media. When OD reached 0.6, IPTG was added to 0.2 mM and growth was continued for at least 6 hours. Cells were harvested by centrifugation and stored at −80° C. Cells were lysed with BPER (Pierce) containing 1 mM dithiothreitol, 0.2 mg/ml lysozyme, 2 mg/ml protease inhibitor cocktail (Sigma bacterial cell cocktail, P8465) and endonuclease. Lysate supernatants were passed through a column of NHS-activated Agarose (Thermo, #26197) derivatized with coenzyme A. Columns were washed with 25 mM Hepes, pH 7, containing progressively higher concentrations of KCl, then eluted with 25 mM Hepes, 100 mM KCl, 10% ethylene glycol and 1 mM acetyl CoA. Purity as evaluated by polyacrylamide gel electrophoresis was deemed consistently high enough to be assumed to be 100%. Protein concentration was determined with the Bradford assay using a large-scale lot of produced GLYAT protein as standard.
(§2) Kinetic parameters for various substrates were obtained using a range of seven substrate concentrations plus a blank containing none of the varied substrate. The non-varied substrate was present at a saturating concentration. Six-microliter aliquots of 50-fold concentrated stock solutions of the varied substrate were placed in a 96-well assay plate (Greiner BioOne UV-Star). Reactions were started with the addition of 294 ul of 25 mM Hepes, pH 7.0, 100 mM KCL, 10% ethylene glycol, the non-varied substrate and 10 to 200 nM enzyme. Absorbance was monitored for one minute with a Spectramax 384 Plus plate reader (Molecular Devices). If the amino acid present at position 30 (29 if alanine is absent at position 2) was cysteine, absorbance was monitored at 235 nm, which directly detects cleavage of the sulfoester bond of acetyl CoA. If the amino acid present at position 30 (29 if alanine is absent at position 2) was isoleucine, 0.5 mM 5,5′-dithiobis-(2-nitrobenzoic acid), which reacts with the coenzyme A thiol generated in the enzyme catalyzed reaction, was included in the reaction mix and absorbance was monitored at 412 nm. Initial rates were processed by the Softmax software to obtain kinetic parameters, using the double-reciprocal transformation.

[2] = molecular target: novel GLYAT variants of Table 3 (high specificity variants derived from SEQ ID NO:1 and 2) (Bacillus licheniformis, UniProt Q65LG7); type: biochemical; conditions: lowest value in novel variants
Procedure: as §1, §2

[3] = molecular target: GLYAT variant SEQ ID NO:7 (derived from SEQ ID NO:1 and 2) (Bacillus licheniformis, UniProt Q65LG7, A28V/D131E/E119K/E14D/E65Q/E67K/E68K/E79G/E83D/G37R/G38S/G48A/I132L/I135A/I15L/I19V/I2L/I53V/I91V/K101R/K144R/K58Q/L105M/L106I/L26I/L36T/L97I/M75V/N109F/R47G/R92K/T33S/T89S/V114A/Y130F/Y31W/Y45F); type: biochemical
Procedure: as §1, §2

[4] = molecular target: GLYAT (glyphosate-N-acetyltransferase), parent, SEQ ID NO:1 (Bacillus licheniformis, UniProt Q65LG7, E119R/E14D/E65Q/E67K/E68K/G37R/G38S/I132T/I135V/I15L/I19V/I53V/I91V/K101R/K144R/K58Q/L105M/L106I/L145I/L26I/L36T/L97I/M75V/R47G/R92K/T33S/T89S/V114A/Y130F/Y31F/Y45F)
[5] = molecular target: GLYAT variant SEQ ID NO:5 (derived from SEQ ID NO:1 and 2) (Bacillus licheniformis, UniProt Q65LG7, A28V/D131E/E14D/E65Q/E67K/E68K/G37R/I132T/I135A/I15L/I19V/I53V/I91V/K101R/K144R/K58Q/L105M/L106I/L26I/L97I/M75V/R47G/R92K/T89S/V114A/Y130F/Y45F); conditions: pH 7.0
[6] = molecular target: GLYAT variant SEQ ID NO:3 (derived from SEQ ID NO:1 and 2) (Bacillus licheniformis, UniProt Q65LG7, A28V/D131E/E119K/E14D/E65Q/E67K/E68K/E83D/G37R/I132T/I135V/I15L/I19V/I2L/I53V/I91V/K101R/K144R/K58Q/L105M/L106I/L26I/L97I/M75V/R47G/R92K/T89S/V114A/Y130F/Y45F); conditions: pH 7.0
[7] = molecular target: GLYAT high specificity variant SEQ ID NO:29 (derived from SEQ ID NO:1 and 2; C29I, F31Y; motif VIMYETDLL, SEQ ID NO:174) (Bacillus licheniformis, UniProt Q65LG7); type: biochemical
Procedure: as §1, with “Lysate supernatants were passed through a column of NHS-activated Agarose (Thermo, #26197) derivatized with coenzyme A. Columns were washed with 25 mM Hepes, pH 7, containing progressively higher concentrations of KCl, then eluted with 25 mM Hepes, 100 mM KCl, 10% ethylene glycol and 1 mM acetyl CoA.” left out
Kinetic parameters for various substrates were obtained using a range of seven substrate concentrations plus a blank containing none of the varied substrate. […] Absorbance was monitored for one minute with a Spectramax 384 Plus plate reader (Molecular Devices). If the amino acid present at position 30 (29 if alanine is absent at position 2) was cysteine, absorbance was monitored at 235 nm, which directly detects cleavage of the sulfoester bond of acetyl CoA. […]

[8] = pH 7.0, non-varied substrate saturating

N[C@@H](CC(=O)O)C(=O)O [aspartate]
kcat/Km asp, % glyph [1]: 55.6%
specificity (kcat/KM asp/kcat/KM glyph) [2]: ≥ 0.014%
kcat/KM with aspartate ([2]; 25 mM Hepes, pH 7.0): ≥ 1.7 M⁻¹ s⁻¹
Asp as % of glyph (kcat/KM asp / kcat/KM glyph) ([3]; pH 7.0): 0.154%
kcat (aspartate) [3, 8]: 1.52 s⁻¹
kcat/KM (aspartate) [3, 8]: 13.7 M⁻¹ s⁻¹
kcat/KM with aspartate ([4]; 25 mM Hepes, pH 7.0): 228 M⁻¹ s⁻¹
kcat/Km asp, % glyph ([4]; Table 5 and text, specificity (kcat/KM asp/kcat/KM glyph), listed as asp): 1.3% and 1.27%
Asp as % of glyph (kcat/KM asp / kcat/KM glyph) ([4]; pH 7.0): 1.273%
Asp as % of glyph (kcat/KM asp / kcat/KM glyph) [5]: 0.059%
Asp as % of glyph (kcat/KM asp / kcat/KM glyph) [6]: 0.403%
activity with aspartate (kcat/Km) ([7]; 25 mM Hepes, pH 7.0): 8 M⁻¹ s⁻¹
kcat/Km asp, % glyph ([7]; Table 5, ratio of kcat/Km asp to kcat/Km glyph): 0.013%
